# According to PubChem BioAssay (NCI):
#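 Step 1: Grow cells in 96-well plates. Step 2: Expose to compound for 48 hours at 5 concentrations. Step 3: Interpolate endpoints linearly; if unreached, use highest concentration. TGI: concentration producing complete growth inhibition.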
# How the values were obtained:
# Assay in all cases: growth of human tumour cells (NCI), 48 h
# A498 renal = tested on: A498 renal
# SF-295 CNS = tested on: SF-295 CNS
# OVCAR-3 ovarian = tested on: OVCAR-3 ovarian
# EKVX NSCLC = tested on: EKVX NSCLC
# MCF7 breast = tested on: MCF7 breast
# ACHN renal = tested on: ACHN renal
# SNB-19 CNS = tested on: SNB-19 CNS
# MDA-MB-435 = tested on: MDA-MB-435
# A549 NSCLC = tested on: A549 NSCLC
# RXF 393 renal = tested on: RXF 393 renal
# SW-620 colon = tested on: SW-620 colon
# K-562 leukemia = tested on: K-562 leukemia
# HOP-92 NSCLC = tested on: HOP-92 NSCLC
# SK-MEL-5 melanoma = tested on: SK-MEL-5 melanoma
# HT29 colon = tested on: HT29 colon
# SK-MEL-2 melanoma = tested on: SK-MEL-2 melanoma
# COLO 205 colon = tested on: COLO 205 colon
# OVCAR-5 ovarian = tested on: OVCAR-5 ovarian
# CCRF-CEM leukemia = tested on: CCRF-CEM leukemia
SMILES,TGI (A498 renal) [µM],TGI (SF-295 CNS) [µM],TGI (OVCAR-3 ovarian) [µM],TGI (EKVX NSCLC) [µM],TGI (MCF7 breast) [µM],TGI (ACHN renal) [µM],TGI (SNB-19 CNS) [µM],TGI (MDA-MB-435) [µM],TGI (A549 NSCLC) [µM],TGI (RXF 393 renal) [µM],TGI (SW-620 colon) [µM],TGI (K-562 leukemia) [µM],TGI (HOP-92 NSCLC) [µM],TGI (SK-MEL-5 melanoma) [µM],TGI (HT29 colon) [µM],TGI (SK-MEL-2 melanoma) [µM],TGI (COLO 205 colon) [µM],TGI (OVCAR-5 ovarian) [µM],TGI (CCRF-CEM leukemia) [µM]
N#Cc1c(C#N)c(-c2ccco2)n(/N=C/c2ccco2)c1N,> 100,> 100,> 100,> 100,> 100,> 100,67.5,> 100,> 100,89.1,> 100,> 100,61.2,> 100,> 100,> 100,> 100,> 100,> 100
COc1cccc2c(NNc3ccc(Cl)cc3)c3ccc([N+](=O)[O-])cc3nc12,33.2,36.1,36.3,33.3,> 100,22.4,33.2,> 100,28.4,48,> 100,97.2,27.7,80.4,34.8,> 100,85,91.9,15.6
CC(C)(C)OC(=O)N(CCCN)CCCCN(CCCN)C(=O)OC(C)(C)C,> 100,> 100,> 100,> 100,> 100,> 100,> 100,> 100,> 100,> 100,> 100,> 100,> 100,> 100,> 100,> 100,> 100,> 100,> 100
Cc1ccc(-c2cn3c(nc4ccccc43)c(C)n2)cc1,> 77.5,> 100,> 100,> 100,> 100,> 100,> 100,97,> 100,> 64.4,> 100,> 100,98.1,40.3,> 100,> 63.8,> 100,> 100,> 100
O=C1c2c(ccc3c2CCCC3)CC12Cc1ccccc1C2,77.5,> 100,48.9,> 95.9,> 76.6,97.1,> 100,> 100,> 92.6,46.2,> 100,> 48.2,51.7,22.3,> 57.1,39.6,65.2,> 67.6,27
O=C1N[C@@H](c2c[nH]c3ccc(Br)cc23)C(=O)N[C@H]1c1c[nH]c2ccc(Br)cc12,18.5,25.2,28.4,29.7,35.2,15.8,49.2,16.8,33.8,43.4,26.2,18.9,15.5,17.7,20.2,29.4,20,28.8,24
COc1c(-c2ccc3c(c2)OCO3)oc2cc3c(c(OC)c2c1=O)OCO3,50.3,61.8,74.9,57.1,40.6,63,43.4,36.2,54,69.8,> 100,> 100,79.6,35.5,> 100,56.9,> 100,> 100,> 100
CC(C)(C)C(=O)C(C#N)C(=O)C(C)(C)C,> 100,> 100,> 100,> 100,> 100,> 100,> 100,> 100,> 100,> 100,> 100,> 100,> 100,> 100,> 100,> 100,> 100,> 100,> 100
Clc1ccc(CCn2ccc3ccccc32)c(Cl)c1,> 100,> 100,> 100,> 100,> 100,> 100,> 100,> 100,> 100,> 100,> 100,> 100,> 100,> 100,> 100,> 100,> 100,> 100,> 100
O=S(=O)(N1CCCCN(S(=O)(=O)C(F)(F)F)CCCN(S(=O)(=O)C(F)(F)F)CCCN(S(=O)(=O)C(F)(F)F)CCCCN(S(=O)(=O)C(F)(F)F)CCCN(S(=O)(=O)C(F)(F)F)CCC1)C(F)(F)F,> 100,82.1,> 100,> 100,> 100,> 100,> 100,> 100,> 100,70.2,> 100,> 100,> 100,> 100,> 100,> 100,> 100,> 100,> 100
CC(C)(C)OC(=O)N1CC(COS(C)(=O)=O)c2ccc(O)cc21 (stereo not drawn),4.38,10.8,7.25,4.59,7.49,3.12,8.95,3.21,10.7,0.924,9.57,9.54,5.56,2.92,10.6,2.9,3.31,5.86,3.06
COc1ccc(N=Nc2ccc3oc(=O)c(C(=O)Nc4ccc(OC)cc4)cc3c2)cc1,9.17,51.9,46.6,97.7,38,56.5,83.1,54.8,> 100,> 100,66.1,> 100,50.1,33.3,55.5,39.5,43.7,50.6,> 100
